Experimental data from patent US20240238278A1, “Pharmaceutical Composition for Preventing or Treating Fibrosis” (Daewoong Pharmaceutical Co., Ltd., priority 2021, published 2024).

Tests used:
[1] = tested on: animal model of pulmonary fibrosis; experiment: Measurement of total collagen content in lung (INSOLUBLE Collagen Assay); format: in vivo, mouse; conditions: BLM mice, PO, day 21, n 9; first component 10 mg/kg, NIN 60 mg/kg, PID 200 mg/kg
Method: (§1) 70-100 uL of BLM solution (bleomycin 1-3 mg/kg) was administered to a lung of the acclimatized experimental animals using a catheter for 5 days or more. In accordance with the purpose of the test, the test drug was administered 7 days after BLM administration, and the drug was orally administered for 2 weeks until the 21st day of BLM administration.
In this experimental example, analysis was performed using INSOLUBLE Collagen Assay (Biocolor, S2000). After sacrifice on the 21st day, the cryopreserved lung tissue was pulverized by adding 100 uL of Fragmentation Reagent, and then, 100 uL of 37% HCl was added and incubated at 65° C. for 3 hours. The contents of the tube were shaken at 30 minute intervals to aid tissue disintegration. After centrifugation, the concentration was adjusted to 100 μL and collagen staining was proceeded to prepare a sample. Absorbance was measured at 560 nm.

[2] = Pharmacokinetic test after single oral administration in ICR mice; format: in vivo; conditions: mouse, blood, ICR mice (male), 10 mg/kg
Method: The pharmacokinetic parameters were calculated using Excel® and WinNonlin6.1 software for the blood drug concentration according to the change over time obtained through LC-MS/MS, and changes in the blood concentration of the first component are shown in Table 11 and FIG. 9.

[3] = tested on: animal model of pulmonary fibrosis; experiment: Histopathology (Ashcroft score) analysis, Fibrotic Index; format: in vivo, mouse; conditions: BLM mice, PO, day 21; first component 10 mg/kg, PID 200 mg/kg
Method: as §1
The degree of fibrosis and inflammation of the lung tissue were visually observed through a microscope, and the degree of fibrosis of lung tissue was measured with a Fibrotic Index according to normalized criteria. The higher the Fibrotic Index value, the more severe the degree and symptom of fibrosis. It is interpreted that as the value is lower, the symptom is alleviated.
On the 21st day, lung tissue was separated and stained using H&E and MT stain, and observed under a microscope at 200× magnification. The observed results were scored by Ashcroft (Hubner et al., 2008). The fibrotic index was calculated by dividing the sum of the adjusted Ashcroft field scores by the number of fields tested, and shown in Table 7 and FIG. 4.

[4] = Measurement of change in body weight in BLM animal model; format: in vivo, mouse; set-up: unit not given here; conditions: BLM mice, first component 10 mg/kg, NIN 60 mg/kg, PID 200 mg/kg
Method: as §1
The body weight was measured once every 0, 7, 14, 17, and 21 days for 3 weeks, and from the 14th day when the drug effect began to be noticeable after the administration, it was measured every 3 days.

[5] = tested on: animal model of pulmonary fibrosis; experiment: Lung function evaluation (SpO2) in BLM animal model; format: in vivo, mouse; conditions: BLM mice, PO, day 21, first component 10 mg/kg, NIN 60 mg/kg, PID 200 mg/kg; for SpO2 Differance / SpO2 Rate of increase: vs vehicle
Method: as §1
This lung function evaluation is the most direct and important evaluation index that has the greatest influence on the symptoms and quality of life of patients with pulmonary fibrosis, and is an experiment that can most directly show the effect of improving lung function in an animal model of pulmonary fibrosis by measuring the oxygen concentration in the body.
On the 21st day, it was measured with a SpO2 measuring device (Berry, Veterinary Pulse Oximeter) via the abdominal side of the mouse, and the results are shown in Table 5 and FIG. 3.

DHLF cell line = experiment: Non-clinical anti-fibrotic efficacy: Western blotting of TGF-β treated DHLF cell line; format: cell-based; conditions: TGF-β 10 ng/ml, 72 hours
Method: 10 mM of the first component was diluted with DMSO so as to be to 100 uM. It was diluted with DMSO so as to be 10, 3, 1 uM, and 10 mM of the second component (NIN) was diluted with DMSO to be 50 nM.
A DHLF cell line (FGM™-2 Bullet Kit™, 10% FBS), which is a lung fibrosis cell line, was prepared, and cultured in a T75 Easy Flask Filter at 37° C. and 5% CO2 using FBM medium. The cultured DHLF cell line was treated with 10 ng/mL of TGF-β and the test drug alone or in combination, cultured for 72 hours, then the media was removed, the protein was extracted, and the extracted protein was quantified using the BCA Protein Assay Kit. Based on the quantitative value of each extracted protein, 10 to 20 ug of protein was subjected to Western blotting. The protein after running was transferred to the PVDF membrane. After TBS-T washing 3 times, each PVDF membrane was treated with 1 mL of ECL solution, and then the protein expression level was measured using an AI680 imager. Each band value was calculated as a numerical value normalized compared to β-actin through ImageJ, and is shown in Tables 2 and 3 and FIGS. 1 and 2 below.

[6] = tested on: animal model of pulmonary fibrosis; experiment: Inflammation cell count analysis in BALF; format: in vivo; conditions: BLM mice, PO, day 21; first component 10 mg/kg, NIN 60 mg/kg, PID 200 mg/kg
Method: as §1
At the sacrifice on the 21st day of administration, BALF (Bronchoalveolar lavage fluid) cells obtained through airway washing of mice were diluted with 1.05×PBS and attached to a slide, and then the slide was immersed and removed for 30 seconds in the order of 1, 2, 3 diff quick stain solution, and stained. It was counted based on 500 cells. Macrophages are the largest in size, mononuclear, and stained blue. Neutrophils and eosinophils form polynuclear cells, but eosinophils are stained red with eosin and distinguished from neutrophils. Lymphocytes have very less cytoplasm and are small in size as monocytes.

[7] = Table 2, first component 10 ug/ml alone
[8] = Table 3, first component 5 ug/ml alone

Row | SMILES | total collagen content in lung (hydroxyproline value, ratio compared with normal group) [1] | Fibrotic Index (±SEM) [3] | change in body weight ([4]; Day 0) | change in body weight ([4]; Day 7) | change in body weight ([4]; Day 14) | change in body weight ([4]; Day 17) | change in body weight ([4]; Day 21) | SpO2 Average value [5] | SpO2 Differance [5] | SpO2 Rate of increase [5] | Eosinophil count in BALF [6] | Lymphocyte count in BALF [6] | Macrophage count in BALF [6] | Neutrophil count in BALF [6] | total cell in BALF [6] | further results
1 | O[C@H]1CCCN[C@@H]1CCCn1cnc2c(Cl)c(Cl)ccc21 [First component] | 228 | 4.6 (±0.6) | 0.0 | −10.1 | −22.7 | −22.2 | −20.5 | 79.1 | 3.1 | 4% | 0 | 7 | 60 | 17 | 84 10^4 | AUC(0-inf) [2]: 1190 ng·h/mL; AUC(0-t) [2]: 1070 ± 210 ng·h/mL; Cmax [2]: 263 ± 32 ng/mL; Tmax [2]: 2.67 ± 1.15 h; half-life [2]: 2.5 ± 2.48 h; COL1A1 Relative value (based on control) (DHLF cell line; [7]): 3.26; SMA-α Relative value (based on control) (DHLF cell line; [7]): 1.66; COL1A1 Relative value (based on control) (DHLF cell line; [8]): 3.84; SMA-α Relative value (based on control) (DHLF cell line; [8]): 3.53
2 | Cc1ccc(=O)n(-c2ccccc2)c1 [Second component (PID), Pirfenidone] | 156 | 3.7 (±0.7) | 0.0 | −10.2 | −22.7 | −18.1 | −16.5 | 81.7 | 5.7 | 7% | 0 | 6 | 55 | 12 | 74 10^4 | SpO2 Rate of increase ([5]; listed as PID): 7%
